In patent US20230416225A1, “DIAMINOPYRIMIDINE CARBOXAMIDE INHIBITORS OF HPK1” (MERCK SHARP & DOHME LLC, priority 2020, published 2023):

Biological target: T1, Human HPK1, catalytic domain (Homo sapiens, UniProt Q92918)
T1 construct: purchased Carna
T1 sequence (Q92918 1-346): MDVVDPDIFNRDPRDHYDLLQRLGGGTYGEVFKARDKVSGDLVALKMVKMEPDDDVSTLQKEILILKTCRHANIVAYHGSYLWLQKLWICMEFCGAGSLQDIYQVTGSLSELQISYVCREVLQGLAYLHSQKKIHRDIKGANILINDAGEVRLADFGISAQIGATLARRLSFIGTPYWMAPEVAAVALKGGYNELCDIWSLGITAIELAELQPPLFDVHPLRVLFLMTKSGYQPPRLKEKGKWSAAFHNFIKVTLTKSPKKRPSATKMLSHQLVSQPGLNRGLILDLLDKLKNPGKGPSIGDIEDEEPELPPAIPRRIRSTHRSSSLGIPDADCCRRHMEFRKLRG
Experiment: HPK1-SLP76 TR-FRET assay
Assay type: biochemical
Conditions: 75 pM HPK1, 10 uM ATP, 10 nM SLP76, 30 min compound pre-incubation

| IC50 [nM] | SMILES |
| --- | --- |
| 12 | COc1cc2c(cc1Nc1ncc(C(N)=O)c(N[C@@H](C)C3CCCCC3)n1)CN(C)CC2 [Example 26-7, 4-{[(1S)-1-cyclohexylethyl]amino}-2-[(6-methoxy-2-methyl-1,2,3,4-tetrahydroisoquinolin-7-yl)amino]pyrimidine-5-carboxamide] |
| 14.5 | NC(=O)c1cnc(Nc2cccc(OC(F)F)c2)nc1Nc1cccc2c1CCNC2=O [Example 25-16, 2-{[3-(difluoromethoxy)phenyl]amino}-4-[(1-oxo-1,2,3,4-tetrahydroisoquinolin-5-yl)amino]pyrimidine-5-carboxamide] |
| 9.83 | COc1cc2c(cc1Nc1ncc(C(N)=O)c(NCc3cccc(C#N)c3)n1)CN(C)CC2 [Example 26-58, 4-{[(3-cyanophenyl)methyl]amino}-2-[(6-methoxy-2-methyl-1,2,3,4-tetrahydroisoquinolin-7-yl)amino]pyrimidine-5-carboxamide] |
| 11.9 | COc1cc2c(cc1Nc1ncc(C(N)=O)c(NC3CCC(C(F)(F)F)CC3)n1)CN(C)CC2 (stereo not shown) [Example 26-16, 2-[(6-methoxy-2-methyl-1,2,3,4-tetrahydroisoquinolin-7-yl)amino]-4-{[4-(trifluoromethyl)cyclohexyl]amino}pyrimidine-5-carboxamide] |
| 26 | COc1cc2c(cc1Nc1ncc(C(N)=O)c(NC3CCN(C4CC4)C3)n1)CN(C)CC2 (stereo not shown) [Example 26-11, 4-[(1-cyclopropylpyrrolidin-3-yl)amino]-2-[(6-methoxy-2-methyl-1,2,3,4-tetrahydroisoquinolin-7-yl)amino]pyrimidine-5-carboxamide] |

Further lines, the molecule ahead of its results:

| SMILES | IC50 [nM] |
| --- | --- |
| COc1cc2c3cc1Nc1ncc(C(N)=O)c(n1)Nc1c(F)cc(cc1F)CCCCCN(CC2)C3 [Example 19-1, 52,56-Difluoro-16-methoxy-11,12,13,14-tetrahydro-2,4-diaza-1(7,2)-isoquinolina-3(2,4)-pyrimidina-5(1,4)-benzenacyclodecaphane-35-carboxamide] | 3.01 |
| Cn1cc(Nc2ncc(C(N)=O)c(Nc3cccc4c3CCNC4)n2)cn1 [Example 7-12, 2-[(1-methyl-1H-pyrazol-4-yl)amino]-4-[(1,2,3,4-tetrahydroisoquinolin-5-yl)amino]pyrimidine-5-carboxamide] | 1.86 |
| NC(=O)c1cnc(Nc2ccc3c(c2)COCC3)nc1Nc1ccccc1Br [Example 7-107, 4-[(2-bromophenyl)amino]-2-[(3,4-dihydro-1H-2-benzopyran-7-yl)amino]pyrimidine-5-carboxamide] | 55 |
| COc1cc(N2CCC(N3CCOCC3)CC2)ccc1Nc1ncc(C(N)=O)c(Nc2ccccc2Br)n1 [Example 7-116, 4-[(2-bromophenyl)amino]-2-({2-methoxy-4-[4-(morpholin-4-yl)piperidin-1-yl]phenyl}amino)pyrimidine-5-carboxamide] | 283 |
| COc1cc2c(cc1Nc1ncc(C(N)=O)c(Nc3ccccc3OC(F)F)n1)CN(C)CC2 [Example 7-114, 4-{[2-(difluoromethoxy)phenyl]amino}-2-[(6-methoxy-2-methyl-1,2,3,4-tetrahydroisoquinolin-7-yl)amino]pyrimidine-5-carboxamide] | 0.09 |
| Cn1cc(Nc2ncc(C(N)=O)c(Nc3cccc4c3CCNC4)n2)c(=O)[nH]1 [Example 7-11, 2-[(1-methyl-3-oxo-2,3-dihydro-1H-pyrazol-4-yl)amino]-4-[(1,2,3,4-tetrahydroisoquinolin-5-yl)amino]pyrimidine-5-carboxamide] | 111 |
| COc1cc2c(cc1Nc1ncc(C(N)=O)c(Nc3cn(C)nc3C3CC3)n1)CN(C)CC2 [Example 7-81, 4-((3-cyclopropyl-1-methyl-1H-pyrazol-4-yl)amino)-2-((6-methoxy-2-methyl-1,2,3,4-tetrahydroisoquinolin-7-yl)amino)pyrimidine-5-carboxamide] | 3.08 |
| COc1nn(C)cc1Nc1ncc(C(N)=O)c(Nc2cccc3c2CCNC3)n1 [Example 7-9, 2-[(3-methoxy-1-methyl-1H-pyrazol-4-yl)amino]-4-[(1,2,3,4-tetrahydroisoquinolin-5-yl)amino]pyrimidine-5-carboxamide] | 1.17 |
